9 compounds from PubChem BioAssay (NCI) can be followed below.

Common to all, as to assay: DTP human tumour cell line panel, 48 h
Experiment [1] deals with A498 renal.
Experiment [2] concerns NCI-H23 lung.
Experiment [3] deals with UACC-62 melanoma.
The test system of experiment [4] is MOLT-4 leukemia.
The subject of experiment [5] is A549 NSCLC.
The test system of experiment [6] is M14 melanoma.
For experiment [7], the system named is UACC-257 melanoma.
Experiment [8] relates to SK-OV-3 ovarian.
Experiment [9] relates to 786-0 renal.
Experiment [10] deals with IGROV1 ovarian.

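How tested: cells in 96-well plates exposed to compound for 48 hours at five concentrations. Abbreviation: GI50, concentration required for 50% inhibition of growth. TGI is the concentration that stops growth completely.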

Take `COCCOCCOCCOCCOc1ccc2c(c1)C(=O)c1nc3ncccc3c(=O)n1-2`: the GI50 was 1.77 µM in [1]; 0.279 µM in experiment [2]; 0.371 µM in experiment [3]; 3.61 µM in [4]; 0.465 µM in [5]; 0.312 µM in experiment [6]. The GI50 is 0.763 µM in experiment [7], 2.81 µM in experiment [8] and 2.17 µM in [9]. The TGI was 3.16 µM in [1]; 1.18 µM in [2]; 1.07 µM in [3]; above 100 µM in experiment [4]; 2.41 µM in [5]; 1.44 µM in experiment [6]. The values for the total growth inhibition concentration (TGI) in experiment [7], in experiment [8] and in experiment [9] were 2.38 µM, 6.99 µM and 9.46 µM, respectively.
In the case of `ClCc1ccc(Cn2cnc3ncnc(Cl)c32)cc1`, the GI50 in [1] is 1.81 µM; in experiment [2] it was 16 µM; in experiment [3] it was 2.5 µM; in experiment [5] it was 1.81 µM; in experiment [6] it was 2.73 µM; in [7], 1.57 µM. In addition, the GI50 is 11.3 µM in experiment [8], 1.68 µM in [9] and 7.61 µM in experiment [10]. Also, the TGI was determined as 3.37 µM in experiment [1]; 30.6 µM in experiment [2]; 12 µM in [3]; 4.13 µM in [5]; 13 µM in experiment [6]; 3.48 µM in experiment [7]. Also, the results for the TGI in [8], in experiment [9] and in [10] were 23.3 µM, 3.05 µM and 31.1 µM, respectively.
In the case of `OCC(O)C(OC1OC(CO)C(O)C(O)C1O)c1nn(-c2ccc(F)cc2)c2nc3cc(Cl)c(Cl)cc3cc12` (stereo not drawn), the concentration for total growth inhibition (TGI) in [1], in experiment [2], in experiment [3], in [4], in experiment [6] and in [7] was above 100 µM in each case. Moreover, the TGI in experiment [8] and in experiment [9] was above 100 µM throughout.
On to `C=C1C(=O)O[C@H]2[C@H](OC(C)=O)[C@@H](C)CCC/C(C)=C/CC[C@]3(CO3)[C@H](O)C[C@@H]12`, for which the GI50 was 16.9 µM in experiment [1]; 4.87 µM in experiment [2]; 12.7 µM in experiment [3]; 2.28 µM in experiment [4]; 16.9 µM in experiment [5]; 12.4 µM in experiment [7]. The GI50 in experiment [8] was 9.12 µM; in experiment [9], 3.65 µM; in experiment [10] it was 3.37 µM. The TGI in [1] is 33.4 µM; in experiment [2] it was 18.3 µM; in experiment [3] it was 25.3 µM; in experiment [4], 5.82 µM; in experiment [5], 35 µM; in [7], 26.1 µM. The TGI stood at 21.7 µM in experiment [8], 14.1 µM in [9] and 12.8 µM in [10].
Take `CC(C)(C)c1ccc(C(O)(c2ccc(C(C)(C)C)cc2)c2ccc(C(C)(C)C)cc2)cc1`: the TGI in experiment [1], in [2], in experiment [3], in experiment [4], in experiment [5] and in experiment [6] was above 100 µM in each case. The TGI in experiment [8], in [9] and in [10] was above 100 µM in each case.
For `COc1cc(C=NCC(=O)CSC(c2ccccc2)c2ccccc2)cc(OC)c1OC`, the GI50 in experiment [1] is 5.98 µM; in [2], 26 µM; in experiment [3] it was 19.2 µM; in experiment [4] it was 6.96 µM; in [5] it was 7.7 µM; in experiment [6], 27 µM. In addition, the GI50 in experiment [7] was 13.9 µM; in [8], 23.3 µM; in [9], 24.6 µM. Further, the TGI in experiment [1] is 38 µM; in experiment [2], above 100 µM; in [3] it was above 100 µM; in experiment [4] it was 89.9 µM; in experiment [5], above 100 µM; in experiment [6], above 100 µM. In addition, the TGI was 60.5 µM in [7], 76 µM in [8] and above 100 µM in [9].
Take `Cc1nc(Nc2ccc([N+](=O)[O-])cc2)sc1C(=O)/C=C/c1ccc(N(C)C)cc1`: the TGI in [1], in experiment [2], in experiment [3], in [4], in experiment [5] and in [7] was above 100 µM in each case. Moreover, the TGI in [8], in [9] and in experiment [10] was above 100 µM throughout.
For `CCn1c(-c2cc3ccccc3cc2OC(=O)c2ccccc2)n[nH]c1=S`, the GI50 in experiment [2] was 22.5 µM; in [3] it was 28.8 µM; in experiment [4], 28 µM; in experiment [5], above 50 µM; in [6], above 50 µM; in [7], above 50 µM. In addition, the GI50 in [8] was above 50 µM; in experiment [9], above 50 µM; in experiment [10], 1.51 µM. In addition, the TGI in [2], in [3], in [4], in experiment [5], in experiment [6] and in [7] was above 50 µM each time. The TGI in [8] was above 50 µM; in experiment [9], above 50 µM; in [10] it was 8.54 µM.
For `CC1=CC(=O)c2[nH]c3ccccc3c2C1=O`, the GI50 was 3.69 µM in [2]; 4.21 µM in [3]; 5.36 µM in [4]; 4.21 µM in [6]; 4.57 µM in experiment [7]; 21.1 µM in [8]. Moreover, the GI50 in experiment [9] was 4.27 µM; in experiment [10], 6.63 µM. In addition, the TGI in experiment [2] is 7.28 µM; in experiment [3] it was 7.67 µM; in experiment [4], 15.9 µM; in experiment [5], above 25 µM; in [6], 7.62 µM; in experiment [7] it was 8.58 µM. Further, the TGI in experiment [8] was above 25 µM; in experiment [9] it was 7.71 µM; in experiment [10], 17.1 µM.

A word on the GI50: it is the concentration giving 50% growth inhibition. Usually TGI stands for the concentration at which net growth stops. Read a low TGI as greater sensitivity of the cells.
